For one data set, the target named is Cholinesterase (Equus caballus, UniProt P81908). Kind of data set: Inhibition of equine serum BChE using acetylthiocholine chloride as substrate after 15 mins by Ellman spectrophotometric method.
Data set [1] has as its target Acetylcholinesterase (Homo sapiens, UniProt P22303). Kind of data set: Inhibition of human erythrocyte AChE using acetylthiocholine chloride as substrate after 15 mins by Ellman spectrophotometric method. Background: Ellman's reagent forms a yellow product with free thiols.
Data set [2] can be described thus: Antioxidant activity assessed as Trolox equivalent per microM of compound after 15 mins by oxygen radical absorbance capacity fluorescein assay. Format: physicochemical. The settings on record: 0.25 h.
Data set [3] in a line: Selectivity index, ratio of IC50 for equine serum BChE to IC50 for electric eel AChE.
The target in data set [4] is Amyloid-beta precursor protein (Homo sapiens) (UniProt P05067). Kind of data set: Inhibition of self-induced Abeta(1 to 42) (unknown origin) aggregation at 25 uM after 24 hrs by Thioflavin T-based fluorometric assay.
Sequence of Amyloid-beta precursor protein (Homo sapiens) (P05067 whole entry): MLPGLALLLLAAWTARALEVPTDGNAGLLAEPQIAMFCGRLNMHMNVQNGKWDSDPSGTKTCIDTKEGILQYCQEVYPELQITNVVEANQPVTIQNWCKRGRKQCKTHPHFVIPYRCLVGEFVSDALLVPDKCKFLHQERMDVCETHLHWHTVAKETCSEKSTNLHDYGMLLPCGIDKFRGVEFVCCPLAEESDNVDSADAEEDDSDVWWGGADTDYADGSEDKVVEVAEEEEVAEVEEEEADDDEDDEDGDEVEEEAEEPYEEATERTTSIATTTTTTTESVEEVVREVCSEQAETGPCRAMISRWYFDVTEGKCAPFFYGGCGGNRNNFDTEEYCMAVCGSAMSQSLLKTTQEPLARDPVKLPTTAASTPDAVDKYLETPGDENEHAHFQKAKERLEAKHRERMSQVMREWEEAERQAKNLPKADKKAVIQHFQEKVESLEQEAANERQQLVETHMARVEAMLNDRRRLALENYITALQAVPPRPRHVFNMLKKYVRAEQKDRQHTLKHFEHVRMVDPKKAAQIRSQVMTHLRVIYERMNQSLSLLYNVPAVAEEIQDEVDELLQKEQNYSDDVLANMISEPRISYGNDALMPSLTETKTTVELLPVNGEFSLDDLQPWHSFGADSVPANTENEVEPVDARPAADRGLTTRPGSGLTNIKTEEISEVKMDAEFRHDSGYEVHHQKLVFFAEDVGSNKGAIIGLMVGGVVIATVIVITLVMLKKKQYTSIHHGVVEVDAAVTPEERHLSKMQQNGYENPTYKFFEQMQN
For data set [5], the target named is Acetylcholinesterase (Electrophorus electricus, UniProt O42275). Put plainly: Inhibition of electric eel AChE using acetylthiocholine chloride as substrate after 15 mins by Ellman spectrophotometric method.
Sequence of Acetylcholinesterase (Electrophorus electricus, UniProt O42275) (O42275 whole entry): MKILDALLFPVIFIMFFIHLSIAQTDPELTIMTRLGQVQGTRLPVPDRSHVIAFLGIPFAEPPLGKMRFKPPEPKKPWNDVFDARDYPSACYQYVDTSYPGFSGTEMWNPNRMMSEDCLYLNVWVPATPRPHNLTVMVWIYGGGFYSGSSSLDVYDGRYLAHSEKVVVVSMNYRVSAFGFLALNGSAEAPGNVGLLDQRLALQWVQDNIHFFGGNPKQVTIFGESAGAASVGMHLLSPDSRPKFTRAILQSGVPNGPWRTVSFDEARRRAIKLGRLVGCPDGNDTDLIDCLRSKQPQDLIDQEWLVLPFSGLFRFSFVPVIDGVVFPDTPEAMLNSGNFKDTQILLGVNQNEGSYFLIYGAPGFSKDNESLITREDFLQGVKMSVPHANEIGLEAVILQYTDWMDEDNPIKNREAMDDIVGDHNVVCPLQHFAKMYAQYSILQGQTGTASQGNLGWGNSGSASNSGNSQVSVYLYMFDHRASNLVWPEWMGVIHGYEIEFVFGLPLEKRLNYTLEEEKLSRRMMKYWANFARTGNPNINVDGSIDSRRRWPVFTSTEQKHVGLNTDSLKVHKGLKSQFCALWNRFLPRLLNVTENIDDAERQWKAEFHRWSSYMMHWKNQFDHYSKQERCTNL
The target in data set [6] is Acetylcholinesterase (Electrophorus electricus) (UniProt O42275). Put plainly: Mixed-type inhibition of electric eel AChE using acetylthiocholine chloride as substrate after 15 mins by Lineweaver-Burk plot method.
Sequence of Acetylcholinesterase (Electrophorus electricus) (O42275 24-633 limits assumed): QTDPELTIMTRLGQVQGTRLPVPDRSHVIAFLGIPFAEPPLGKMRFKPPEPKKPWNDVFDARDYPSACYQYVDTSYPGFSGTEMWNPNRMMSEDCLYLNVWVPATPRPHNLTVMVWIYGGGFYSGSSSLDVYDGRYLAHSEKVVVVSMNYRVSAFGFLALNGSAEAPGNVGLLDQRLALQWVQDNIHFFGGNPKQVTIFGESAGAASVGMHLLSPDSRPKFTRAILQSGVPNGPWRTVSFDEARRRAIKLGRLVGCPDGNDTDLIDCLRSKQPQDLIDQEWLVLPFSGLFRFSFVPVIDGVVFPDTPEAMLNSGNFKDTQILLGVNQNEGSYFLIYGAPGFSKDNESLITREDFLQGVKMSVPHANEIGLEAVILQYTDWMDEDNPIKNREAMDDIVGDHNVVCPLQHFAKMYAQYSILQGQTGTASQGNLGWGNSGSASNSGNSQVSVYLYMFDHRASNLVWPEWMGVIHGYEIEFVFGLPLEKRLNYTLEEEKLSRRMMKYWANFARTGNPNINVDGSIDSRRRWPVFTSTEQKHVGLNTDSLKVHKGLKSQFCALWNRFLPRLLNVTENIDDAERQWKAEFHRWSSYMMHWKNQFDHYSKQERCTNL
Data set [7] is described as follows: Permeability of the compound in DMSO-PBS/EtOH solution at 100 ug/ml by PAMPA. The settings on record: read-out: permeability. Format: ADME. Background: In PAMPA a lipid-coated filter parts donor from acceptor wells.
Another data set has as its system PC-12. Kind of data set: Protective activity against H2O2-induced rat PC12 cell injury assessed as cell viability incubated at 5 uM for 3 hrs before H2O2 addition measured after 5 hrs by MTT assay relative to untreated control. Format: functional. The settings on record: read-out: Activity.

Each structure is given as a SMILES string. Activity calls are given as the source filed them. The calls are words filed in the database; no cut-off is given here.

Sequence of Cholinesterase (P81908 whole entry): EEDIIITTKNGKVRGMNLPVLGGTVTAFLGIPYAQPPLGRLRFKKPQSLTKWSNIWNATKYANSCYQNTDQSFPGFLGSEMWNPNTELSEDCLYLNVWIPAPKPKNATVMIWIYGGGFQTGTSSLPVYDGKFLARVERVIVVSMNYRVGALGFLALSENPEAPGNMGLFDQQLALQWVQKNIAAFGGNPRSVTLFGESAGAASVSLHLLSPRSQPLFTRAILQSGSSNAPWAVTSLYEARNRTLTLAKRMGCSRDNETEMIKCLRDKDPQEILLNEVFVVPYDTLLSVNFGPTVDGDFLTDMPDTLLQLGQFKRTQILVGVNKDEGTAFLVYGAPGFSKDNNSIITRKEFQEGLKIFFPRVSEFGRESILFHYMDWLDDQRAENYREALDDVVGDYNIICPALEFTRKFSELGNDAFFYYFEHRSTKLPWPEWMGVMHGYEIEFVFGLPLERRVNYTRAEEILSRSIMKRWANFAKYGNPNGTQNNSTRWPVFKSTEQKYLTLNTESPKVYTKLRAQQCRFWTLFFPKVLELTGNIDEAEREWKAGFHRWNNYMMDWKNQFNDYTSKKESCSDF
Sequence of Acetylcholinesterase (Homo sapiens, UniProt P22303) (P22303 whole entry): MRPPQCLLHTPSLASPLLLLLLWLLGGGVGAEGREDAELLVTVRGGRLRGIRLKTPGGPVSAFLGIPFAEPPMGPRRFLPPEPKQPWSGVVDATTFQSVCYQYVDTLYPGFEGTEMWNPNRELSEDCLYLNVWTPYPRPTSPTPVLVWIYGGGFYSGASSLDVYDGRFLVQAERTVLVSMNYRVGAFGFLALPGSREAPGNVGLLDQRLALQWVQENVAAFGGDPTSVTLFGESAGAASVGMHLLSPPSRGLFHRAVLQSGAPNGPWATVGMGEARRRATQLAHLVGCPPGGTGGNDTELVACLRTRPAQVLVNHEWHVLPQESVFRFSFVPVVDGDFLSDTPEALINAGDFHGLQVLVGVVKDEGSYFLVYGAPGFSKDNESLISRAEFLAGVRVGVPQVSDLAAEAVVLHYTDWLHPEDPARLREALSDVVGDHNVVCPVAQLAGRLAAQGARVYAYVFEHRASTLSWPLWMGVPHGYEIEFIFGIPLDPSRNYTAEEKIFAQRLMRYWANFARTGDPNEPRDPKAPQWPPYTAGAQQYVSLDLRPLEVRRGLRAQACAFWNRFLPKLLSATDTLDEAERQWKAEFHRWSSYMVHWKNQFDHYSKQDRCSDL

As for `COc1cc2oc(-c3cccc(OCC(=O)NCCCCCNc4c5c(nc6cc(Cl)ccc46)CCCC5)c3)cc(=O)c2c(OC)c1OC`, the IC50 against Cholinesterase came to 0.291 µM; at Acetylcholinesterase [1], 0.0173 µM; at Acetylcholinesterase [5], 0.0209 µM. In addition, in data set [2], the “fold change (Trolox equivalents (ORAC))” value was determined as 0.53. Further, the Ratio IC50 in data set [3] worked out at 12.7. This compound also yielded an inhibition in data set [4] of 32.5%.

With `COc1cc2oc(-c3cccc(OCC(=O)NCCCNc4c5c(nc6cc(Cl)ccc46)CCCC5)c3)cc(=O)c2c(OC)c1OC`, the results for the IC50 on Cholinesterase and against Acetylcholinesterase [5] were 0.819 µM and 0.0382 µM, respectively. Further, the “fold change (Trolox equivalents (ORAC))” value in [2] worked out at 0.57. Besides, the Ratio IC50 in [3] worked out at 15.4. In data set [4], the inhibition came to 30.6%.

On Cholinesterase, `Nc1c2c(nc3cc(Cl)ccc13)CCCC2` registered an IC50 of 0.0165 µM. Moreover, the “fold change (FC)” value in data set [2] is reported as 0.17.

With `COc1cc2oc(-c3cccc(OCC(=O)NCCCCNc4c5c(nc6cc(Cl)ccc46)CCCC5)c3)cc(=O)c2c(OC)c1OC`, the IC50 was 1.02 µM at Cholinesterase and 0.0682 µM against Acetylcholinesterase [5]. In [2], the “fold change (Trolox equivalents (ORAC))” value was 0.55. The Ratio IC50 in data set [3] was found to be 15. Further, the inhibition in [4] worked out at 31.8%.

As for `COc1cc2oc(-c3ccc(OCC(=O)NCCCCNc4c5c(nc6cc(Cl)ccc46)CCCC5)cc3)cc(=O)c2c(OC)c1OC`, the values for the IC50 against Cholinesterase and against Acetylcholinesterase [5] were 1.24 µM and 0.0528 µM, respectively. Further, the “fold change (Trolox equivalents (ORAC))” value in data set [2] was 0.58. Also, the Ratio IC50 in data set [3] is 23.5. In data set [4], this compound had an inhibition of 30.3%.

Take `COc1cc2oc(-c3ccc(OCC(=O)NCCCNc4c5c(nc6cc(Cl)ccc46)CCCC5)cc3)cc(=O)c2c(OC)c1OC`: the IC50 at Cholinesterase was determined as 0.549 µM; against Acetylcholinesterase [5], 0.0294 µM. Also, the “fold change (Trolox equivalents (ORAC))” value in data set [2] is on record as 0.62. Moreover, the Ratio IC50 in data set [3] was found to be 13.9. Also, the inhibition in data set [4] amounted to 25.6%.

`COc1cc2oc(-c3cccc(OCC(=O)NCCCCCCNc4c5c(nc6cc(Cl)ccc46)CCCC5)c3)cc(=O)c2c(OC)c1OC`: the IC50 against Cholinesterase was 0.969 µM; against Acetylcholinesterase [1], 0.0325 µM; against Acetylcholinesterase [5], 0.0472 µM. The “fold change (Trolox equivalents (ORAC))” value in [2] came to 0.47. Further, the Ratio IC50 in [3] was 20.5. The inhibition in data set [4] came to 34.3%.

With `COc1cc2oc(-c3cccc(O)c3)cc(=O)c2c(OC)c1OC`, the IC50 against Cholinesterase and on Acetylcholinesterase [5] was more than 100 µM throughout. The “fold change (Trolox equivalents (ORAC))” value in data set [2] is given as 3.6. The inhibition in data set [4] was determined as 17.4%.

For `COc1cc2oc(-c3ccc(OCC(=O)NCCCCCNc4c5c(nc6cc(Cl)ccc46)CCCC5)cc3)cc(=O)c2c(OC)c1OC`, the figures for the IC50 at Cholinesterase, at Acetylcholinesterase [1] and at Acetylcholinesterase [5] were 0.463 µM, 0.0069 µM and 0.0128 µM, respectively. Besides, the inhibition entry in data set [6] was “Active”. In addition, the Papp at 100 ug/ml in data set [7] came to 7.92 ×10⁻⁶ cm/s. In addition, in [2], the “fold change (Trolox equivalents (ORAC))” value came to 0.55. Moreover, in data set [3], the Ratio IC50 turned out to be 36.2. Moreover, the viability at 5 µM in the data set with PC-12 is 45.3%. Moreover, the inhibition in data set [4] turned out to be 33.8%.

On to `COc1cc2oc(-c3ccc(O)cc3)cc(=O)c2c(OC)c1OC`, for which the IC50 at Cholinesterase and against Acetylcholinesterase [5] was more than 100 µM each time. In addition, in [2], the “fold change (Trolox equivalents (ORAC))” value was determined as 5.7. For the same compound, the inhibition in data set [4] came to 11.2%.

On to `COc1cc2oc(-c3ccc(OCC(=O)NCCCCCCNc4c5c(nc6cc(Cl)ccc46)CCCC5)cc3)cc(=O)c2c(OC)c1OC`, for which the IC50 amounted to 0.321 µM on Cholinesterase, 0.0216 µM on Acetylcholinesterase [1] and 0.0413 µM on Acetylcholinesterase [5]. In addition, the “fold change (Trolox equivalents (ORAC))” value in [2] is 0.52. In addition, the Ratio IC50 in data set [3] worked out at 10.3. In data set [4], the inhibition was determined as 35.5%.

As a reminder, the IC50 is the concentration needed to halve the response being measured. The low end stands for higher potency, the high end for lower potency. Broadly, the inhibition is the change of the read-out against control, counted positive when it falls.
